Values joined by “and” are separate entries in the source; they are usually repeats but may differ in a detail not shown here. Equal values may be shown once. “Also recorded” adds a separate entry of the source. Read-outs that look alike come from different tables or passages of the source.
Experiments:
[1] = tested on: aspirin-induced gastric lesions in pylorus-ligated rats; experiment: Effect of various amino acids on aspirin-induced gastric lesions in pylorus-ligated rats (Experiment 3); assay type: in vivo, male Donryu strain rats
[2] = pH of amino acids in 1% carboxymethylcellulose solution; assay type: physicochemical; details: 150 mg/ml in 1% carboxymethylcellulose solution
Experimental: The pH values of the amino acids are also determined. The amino acids are separately dissolved or suspended in 1% carboxymethylcellulose solution at a concentration of 150 mg/ml and the pH is measured on an Hitachi pH meter (product of Hitachi Ltd., Japan).

[3] = tested on: acetic acid-induced writhing response in mice; experiment: Effect of L-glutamine on analgesic activity of aspirin in mice (Experiment C); assay type: in vivo, male dd strain mice; details: aspirin 300 mg/kg oral; writhings in 10 minutes
Experimental: In this Experiment, 3 groups of male dd strain mice weighing 19-21 g are used.
As a control, the third group is treated only with 1% carboxymethylcellulose solution. After a control period of one hour, the animals are treated with 0.2 ml of 0.7% acetic acid solution in physiological saline by intraperitoneal injection, according to the method of Koster et al. [Koster, R. et al: Fed. Proc., 18, 412 (1959)]. Starting 10 minutes after the administration of acetic acid, the number of writhing reaction occurred in 10 minutes is counted.

[4] = tested on: yeast-induced fever in rats; experiment: Effect of L-glutamine on antipyretic activity of aspirin in rats (Experiment B); assay type: in vivo, male Wistar strain rats; details: aspirin 200 mg/kg oral
Experimental: In this Experiment, male Wistar strain rats weighing about 90-100 g are treated with 2.5 ml/rat of a suspension of yeast (Brewers Yeast, product of Nutritional Biochem. Co., U.S.A.) in physiological saline (concentration: 250 mg/ml), by subcutaneous injection in the back, according to the method of Gleen et al [Gleen, E. M. et al: J. Pharma. Exp. Therp., 155, 157 (1967)]. The animals are then fasted. The animals showing an increased rectal temperature of 38° C or more after 17 hours are selected for use in experiment. […] As a control, one group is treated with 105 ml of 1% carboxymethylcellulose solution alone. After the treatment, the rectal temperature is measured at the time indicated.

[5] = tested on: gastric secretion in pylorus-ligated rats; experiment: Effect of L-glutamine on gastric secretion in pylorus-ligated rats (Experiment 4); assay type: in vivo, male Donryu strain rats
Experimental: In this Experiment, 7 groups of male Donryu strain rats are used. After 24 hours of fasting, the pylorus of the animal is ligated in the same manner as described in Experiment 1. Six groups are treated in the same manner as described in Experiment 1 except for the injection of the solution of pontamine sky blue 6BX in saline. A seventh group (normal) is treated twice with 5 ml/kg of 1% carboxymethylcellulose solution.
After 7 hours of pylorus ligation, the animals are killed and the stomach is removed. The gastric juice is collected and the volume is measured. The gastric juice is titrated to pH 7.4 with 0.1N NaOH using an electromatic pH meter. The concentration of pepsin in the gastric juice is also determined according to Anson's hemoglobin method [Anson, M. L., J. Gen. Physiol.

[6] = Rattus norvegicus, po, read-out: Inhibition
[7] = amino acid 750 mg/kg oral; aspirin by gastric intubation
[8] = Rattus norvegicus, po; read-out: Inhibition
[9] = Control group: aspirin 100 mg/kg without L-glutamine, 7 hours

Structure (SMILES)	Amino acid pH [2]	effect on aspirin-induced gastric lesions (in words) ([1]; amino acid 750 mg/kg oral)	Ulcer index [1, 7] [mm]	inhibition in vivo at 750 mg/kg [1, 8] [%]	further results
N=C(N)NCCC[C@H](N)C(=O)O [L-arginine]	11.00	prevent the aspirin-induced gastric lesions almost completely; also recorded: best preventive effect	0.9±0.5	–	inhibition in vivo at 750 mg/kg [1, 6]: 98%
NC(=O)CC[C@@H](N)C(=O)O [D-glutamine]	5.51	–	7.7±1.8	82.9	–
NC(Cc1c[nH]c2ccccc12)C(=O)O (racemic) [DL-tryptophan]	8.27	–	27.4±4.3	39.2	–
NCCCC[C@H](N)C(=O)O [L-lysine]	10.26	prevent the aspirin-induced gastric lesions almost completely; also recorded: best preventive effect	0.4±0.2	–	inhibition in vivo at 750 mg/kg [1, 6]: 99.1%
CC(=O)Oc1ccccc1C(=O)O [aspirin, reference compound]	–	–	–	–	Writhing response number [3]: 10±1; Rectal temperature ([4]; 0 hour): 38.4±0.1 °C; Rectal temperature ([4]; 1 hour): 37.9±0.1 °C; Rectal temperature ([4]; 2 hours): 36.7±0.2 °C; Rectal temperature ([4]; 4 hours): 36.6±0.1 °C; Rectal temperature ([4]; 6 hours): 36.9±0.2 °C; Gastric juice volume [5, 9]: 12.5 ± 0.5 mL; Pepsin concentration [5, 9]: 31.8 ± 1.0 mg/mL; Titrable acidity [5, 9]: 65.1±5.7 mEq/L; concentration of pepsin (in words) ([5]; administration of aspirin): increased; effect on acid output (in words) ([5]; aspirin itself): considerably reduces the titrable acidity and acid output; effect on titrable acidity (in words) ([5]; aspirin itself): considerably reduces the titrable acidity; effect on volume of gastric juice (in words) ([5]; aspirin itself): does not affect the volume of gastric juice
NCC(=O)O [glycine]	6.12	–	6.4±1.7	–	inhibition in vivo at 750 mg/kg [1, 6]: 85.8%
C[C@H](N)C(=O)O [L-alanine]	6.45	–	6.7±1.5	85.1	–
N[C@@H](Cc1ccc(O)cc1)C(=O)O [L-tyrosine]	7.52 and 7.25	no appreciable effect; also recorded: no significant effect	39.3±3.0	–	inhibition in vivo at 750 mg/kg [1, 6]: 12.9%
O=C(O)[C@@H]1C[C@@H](O)CN1 [L-hydroxyproline]	7.86	effective for the prevention of the gastric lesions with high significance	12.8±2.6	–	inhibition in vivo at 750 mg/kg [1, 6]: 71.6%
NC(=O)C[C@H](N)C(=O)O [L-asparagine]	5.80	–	10.0±2.2	77.8	–

Second part, led by results:

Amino acid pH [2]	Structure (SMILES)	effect on aspirin-induced gastric lesions (in words) ([1]; amino acid 750 mg/kg oral)	Ulcer index [1, 7] [mm]	inhibition in vivo at 750 mg/kg [1, 8] [%]	further results
6.11	N[C@@H](CO)C(=O)O [L-serine]	–	3.0±1.0	93.3	–
3.45	N[C@@H](CCC(=O)O)C(=O)O [L-glutamic acid]	good effect	9.1±2.6	79.8	–
6.09	CSCC[C@H](N)C(=O)O [L-methionine]	effective for the prevention of the gastric lesions with high significance	13.0±3.3	71.2	–
5.81	N[C@@H](CS)C(=O)O [L-cysteine]	no appreciable effect	40.5±7.6	10.2	–
6.32	O=C(O)[C@@H]1CCCN1 [L-proline]	–	10.1±2.3	77.6	–
6.26	N[C@@H](Cc1ccccc1)C(=O)O [L-phenylalanine]	significant inhibition of the lesions	21.5±3.7	52.3	–
7.86	N[C@@H](Cc1c[nH]cn1)C(=O)O [L-histidine]	–	2.1±0.8	95.3	–
6.62	N[C@@H](CSSC[C@H](N)C(=O)O)C(=O)O [L-cystine]	no appreciable effect	41.6±3.9	7.8	–
6.60	CC[C@H](C)[C@H](N)C(=O)O [L-isoleucine]	effective for the prevention of the gastric lesions with high significance	11.9±2.3	72.6	–
7.15	CC(C)C[C@H](N)C(=O)O [L-leucine]	–	8.8±2.8	80.5	–
6.80	CC(C)[C@H](N)C(=O)O [L-valine]	–	3.7±1.3	91.8	–
3.33	N[C@@H](CC(=O)O)C(=O)O [L-aspartic acid]	no appreciable effect; also recorded: no significant effect	37.3±6.9	17.3	–
6.26	C[C@@H](O)[C@H](N)C(=O)O [L-threonine]	–	4.7±1.1	89.6	–

— patent US3988466A, “Prevention of gastric lesions” (priority 1973, dated 1976)
